± gives the uncertainty stated by the source.
Assay: xn = mol fraction of the nth substance listed

NCCCN + OCCCO
viscosity [mPa·s], 100 kPa
Details	293.15 K	298.15 K	303.15 K	308.15 K	313.15 K	318.15 K
x2 = 0.0488	2.48 ± 0.042	2.207 ± 0.037	1.884 ± 0.032	1.707 ± 0.029	1.513 ± 0.025	1.454 ± 0.024
x2 = 0.0977	3.266 ± 0.055	2.887 ± 0.048	2.418 ± 0.041	2.17 ± 0.036	1.888 ± 0.032	1.837 ± 0.031
x2 = 0.1467	4.261 ± 0.071	3.71 ± 0.062	3.095 ± 0.052	2.765 ± 0.046	2.395 ± 0.04	2.296 ± 0.038
x2 = 0.1958	5.561 ± 0.093	5.116 ± 0.086	3.988 ± 0.067	3.529 ± 0.059	3.071 ± 0.051	2.924 ± 0.049
x2 = 0.2451	7.784 ± 0.13	6.598 ± 0.11	5.35 ± 0.09	4.639 ± 0.078	3.944 ± 0.066	3.722 ± 0.062
x2 = 0.2945	10.96 ± 0.18	9.104 ± 0.15	7.198 ± 0.12	6.175 ± 0.1	5.145 ± 0.086	–
x2 = 0.3441	15.12 ± 0.25	12.35 ± 0.2	9.637 ± 0.16	8.272 ± 0.14	6.698 ± 0.11	–
x2 = 0.3937	20.61 ± 0.34	16.58 ± 0.27	12.78 ± 0.21	10.64 ± 0.18	8.698 ± 0.14	–
x2 = 0.4435	27.49 ± 0.45	22.54 ± 0.37	17.07 ± 0.28	14.02 ± 0.23	11.29 ± 0.19	–
x2 = 0.4934	37.54 ± 0.62	29.33 ± 0.48	21.87 ± 0.36	17.83 ± 0.29	14.16 ± 0.23	–
x2 = 0.5435	48.19 ± 0.79	37.19 ± 0.61	27.63 ± 0.45	22.21 ± 0.36	17.49 ± 0.29	–
x2 = 0.5937	59.37 ± 0.96	45.53 ± 0.74	33.45 ± 0.55	26.75 ± 0.44	20.06 ± 0.33	–
x2 = 0.644	68.67 ± 1.1	52.73 ± 0.84	38.69 ± 0.63	30.9 ± 0.5	24.13 ± 0.39	–
x2 = 0.6945	75.47 ± 1.3	57.65 ± 0.92	42.48 ± 0.69	34 ± 0.55	26.62 ± 0.43	–
x2 = 0.745	77.45 ± 1.3	60.06 ± 0.97	44.62 ± 0.73	35.77 ± 0.58	28.05 ± 0.46	–
x2 = 0.7958	76.36 ± 1.3	59.6 ± 0.96	44.73 ± 0.73	36.13 ± 0.59	28.42 ± 0.46	–
x2 = 0.8466	71.94 ± 1.2	56.84 ± 0.91	42.88 ± 0.7	34.89 ± 0.57	27.77 ± 0.45	–
x2 = 0.8976	66.38 ± 1.1	52.57 ± 0.83	40 ± 0.65	32.8 ± 0.53	26.28 ± 0.43	–
x2 = 0.9487	59.47 ± 0.96	47.41 ± 0.77	36.34 ± 0.59	30.05 ± 0.49	24.3 ± 0.4	–

NCCCN + OCCOCCOCCO
viscosity [mPa·s], 100 kPa
Details	293.15 K	298.15 K	303.15 K	308.15 K	313.15 K	318.15 K
x2 = 0.0253	2.31 ± 0.03	2.01 ± 0.03	–	1.64 ± 0.03	1.46 ± 0.03	1.23 ± 0.03
x2 = 0.052	2.82 ± 0.03	2.42 ± 0.03	2.1 ± 0.03	1.9 ± 0.03	1.74 ± 0.03	1.45 ± 0.03
x2 = 0.0801	3.56 ± 0.04	3.07 ± 0.03	2.62 ± 0.03	2.28 ± 0.03	2.06 ± 0.03	1.69 ± 0.03
x2 = 0.1098	4.41 ± 0.04	3.74 ± 0.04	3.15 ± 0.03	2.72 ± 0.03	2.47 ± 0.03	2.02 ± 0.03
x2 = 0.1412	5.52 ± 0.04	4.68 ± 0.04	3.91 ± 0.04	3.33 ± 0.04	3 ± 0.03	2.43 ± 0.03
x2 = 0.1746	7.09 ± 0.05	5.97 ± 0.05	4.92 ± 0.04	4.16 ± 0.04	3.72 ± 0.04	2.99 ± 0.03
x2 = 0.21	8.97 ± 0.06	7.46 ± 0.05	6.09 ± 0.05	5.1 ± 0.04	4.54 ± 0.04	3.69 ± 0.04
x2 = 0.2476	11.9 ± 0.1	9.77 ± 0.06	7.87 ± 0.05	6.52 ± 0.05	5.7 ± 0.04	4.51 ± 0.04
x2 = 0.2877	15.8 ± 0.1	12.8 ± 0.1	10.1 ± 0.1	8.27 ± 0.05	7.16 ± 0.05	5.6 ± 0.04
x2 = 0.3305	21.6 ± 0.1	17.1 ± 0.1	13.3 ± 0.1	10.7 ± 0.1	9.13 ± 0.06	7.02 ± 0.05
x2 = 0.3762	29.3 ± 0.2	22.8 ± 0.1	17.5 ± 0.1	13.8 ± 0.1	11.6 ± 0.1	8.8 ± 0.06
x2 = 0.4254	38.8 ± 0.2	29.7 ± 0.2	22.5 ± 0.1	17.5 ± 0.1	14.6 ± 0.1	11 ± 0.1
x2 = 0.4782	50.2 ± 0.2	37.8 ± 0.2	28.3 ± 0.2	21.7 ± 0.1	17.9 ± 0.1	13.3 ± 0.1
x2 = 0.5352	59.8 ± 0.3	44.5 ± 0.2	33.2 ± 0.2	25.5 ± 0.1	20.8 ± 0.1	15.2 ± 0.1
x2 = 0.5969	70.2 ± 0.5	52.2 ± 0.2	38.6 ± 0.2	29.2 ± 0.2	23.7 ± 0.1	17.3 ± 0.1
x2 = 0.6638	72.7 ± 0.5	54.6 ± 0.2	40.6 ± 0.2	30.9 ± 0.2	25.2 ± 0.1	18.5 ± 0.1
x2 = 0.7366	72.1 ± 0.5	54.3 ± 0.2	40.7 ± 0.2	31.2 ± 0.2	25.7 ± 0.1	19.1 ± 0.1
x2 = 0.8162	66.3 ± 0.4	50.6 ± 0.2	38.4 ± 0.2	29.7 ± 0.2	24.7 ± 0.1	18.6 ± 0.1
x2 = 0.9036	57.9 ± 0.2	44.7 ± 0.2	34.3 ± 0.2	26.8 ± 0.1	22.5 ± 0.1	17.2 ± 0.1

NCCCN + OCCOCCOCCOCCO
viscosity [mPa·s], 101.33 kPa
Details	293.15 K	298.15 K	303.15 K	308.15 K	313.15 K	318.15 K
x2 = 0.0197	2.27 ± 0.07	1.95 ± 0.06	1.76 ± 0.05	1.6 ± 0.05	1.31 ± 0.04	1.26 ± 0.04
x2 = 0.0407	2.72 ± 0.08	2.32 ± 0.07	2.08 ± 0.06	1.86 ± 0.06	–	1.48 ± 0.05
x2 = 0.0631	3.37 ± 0.1	2.84 ± 0.09	2.52 ± 0.08	2.25 ± 0.07	1.97 ± 0.06	1.75 ± 0.05
x2 = 0.0871	4.07 ± 0.13	3.41 ± 0.11	2.99 ± 0.09	2.64 ± 0.08	2.34 ± 0.07	2.08 ± 0.06
x2 = 0.1129	5.06 ± 0.16	4.2 ± 0.13	3.64 ± 0.11	3.21 ± 0.1	2.83 ± 0.09	2.48 ± 0.08
x2 = 0.1406	6.38 ± 0.2	5.25 ± 0.16	4.48 ± 0.14	3.92 ± 0.12	3.42 ± 0.11	3 ± 0.09
x2 = 0.1705	8.2 ± 0.26	6.64 ± 0.21	5.62 ± 0.18	4.86 ± 0.15	4.2 ± 0.13	3.62 ± 0.11
x2 = 0.2028	10.6 ± 0.33	8.44 ± 0.26	7.08 ± 0.22	6.05 ± 0.19	5.2 ± 0.16	4.42 ± 0.14
x2 = 0.238	13.9 ± 0.44	10.9 ± 0.34	9.08 ± 0.29	7.62 ± 0.24	6.48 ± 0.2	5.45 ± 0.17
x2 = 0.2762	18.5 ± 0.59	14.2 ± 0.45	11.6 ± 0.37	9.67 ± 0.3	8.11 ± 0.26	6.84 ± 0.21
x2 = 0.3181	24.6 ± 0.79	18.7 ± 0.6	15.1 ± 0.48	12.4 ± 0.39	10.3 ± 0.32	8.42 ± 0.26
x2 = 0.3641	33.1 ± 1.1	24.9 ± 0.79	19.6 ± 0.62	15.8 ± 0.5	12.8 ± 0.4	10.5 ± 0.33
x2 = 0.4148	43.8 ± 1.4	32.6 ± 1	25.2 ± 0.8	20.1 ± 0.63	16.1 ± 0.51	13 ± 0.41
x2 = 0.4711	57.6 ± 1.8	41.4 ± 1.3	31.7 ± 1	24.9 ± 0.78	19.7 ± 0.62	15.8 ± 0.49
x2 = 0.5338	71.2 ± 2.2	50.7 ± 1.6	38.4 ± 1.2	30 ± 0.93	23.5 ± 0.73	18.7 ± 0.58
x2 = 0.6042	81.6 ± 2.6	57.9 ± 1.8	43.7 ± 1.4	34 ± 1.1	26.8 ± 0.83	21 ± 0.65
x2 = 0.6838	85.1 ± 2.7	60.9 ± 1.9	46 ± 1.4	36 ± 1.1	28.4 ± 0.87	22.4 ± 0.69
x2 = 0.7745	81.2 ± 2.6	59.1 ± 1.8	45 ± 1.4	35.5 ± 1.1	28.3 ± 0.87	22.5 ± 0.69
x2 = 0.8788	71.9 ± 2.2	53.1 ± 1.6	41 ± 1.3	32.7 ± 1	26.4 ± 0.81	21.1 ± 0.65
